One data set deals with human LOXL2 (Homo sapiens (Human), UniProt Q9Y4K0). In words: Human LOXL2 CCM assay (Amplex Red amine oxidase activity). Format: biochemical. How it is done:
Human LOXL2/CHO and human LOX/HEK stable cell lines were cultured under normal growth conditions in 15 cm tissue culture plates until cells were ˜80% confluent. Cells were then washed with PBS before the addition of 25-30 mL serum-free media (Phenol red-free DMEM/F12 mix w/glutamax containing pen/strep, 10-100 μM CuCl2±0.1% BSA). Cells were incubated at 37° C., 5% CO2 in serum-free media for 40-48 hours before the conditioned media was removed and centrifuged at 2000 rpm for 5 min at 4° C. to pellet cells/debris. The media was concentrated 10-20× using 10-30 MWCO centriprep columns according to the manufacturer's instructions (EMD Millipore, Billerica, Mass.) before aliquoting and storing at −80° C.
LOXL2 amine oxidase activity was evaluated by measuring Amplex Red fluorescence using 10-20× concentrated conditioned media (non BSA-containing) from CHO cells stably expressing human LOXL2. To assay for amine oxidase activity, 10 μL of the concentrated conditioned media was incubated with 2 μL of test compound in DMSO and 73 μL Assay Buffer (50 mM Borate Buffer, pH8) for 2 h at 37° C. After the 2 h incubation, 5 μL of 10 mM 1,5-Diaminopentane (DAP) diluted in Assay Buffer and 10 μL of Amplex Red Mix (8.5 μL Assay Buffer+0.5 μL of 10 mM Amplex Red+1 μL of 500 U/ml Horseradish Peroxidase) were added and the plate mixed and immediately placed on the FlexStation for fluorescence measurements. Fluorescence was read in kinetic mode every 2 min for 0.5-1 hour at excitation=544 and emission=590. The amine oxidase activity was calculated from the slope of the linear portion of the curve. Wells containing vehicle (DMSO) represented maximum activity and were set to 0% inhibition and wells containing 100 μM βAPN (3-aminopropionitrile) represented no activity and were set to 100% inhibition.

Data set [1] has as its system collagen induced arthritis (CIA). The note with it: in vivo CIA mouse model; cited from earlier work.
The test system of the next data set is MDA-MB-435-GFP cells. Briefly: Mouse orthotopic breast cancer model. Format: in vivo. The following applies: oral 60 mg/kg/day, at 4 weeks, nude mice. How it is done: Tumor stocks were made by subcutaneously (s.c.) injecting MDA-MB-435-GFP cells at a concentration of 5×10^6 cells/100 μL into the flank of nude mice. When the s.c. tumors reach 50-100 mm^3, tumors were harvested and cut into 1 mm^3 fragments. Two tumor fragments were transplanted into the mammary fat pad of each mouse. […] Docetaxel was administered at 10 mg/kg intravenously once a week for 4 weeks as a positive control. Tumor size was calculated from a measurement of perpendicular minor dimension (W) and major dimension (L) using the formula (W2×L)×½ with W and L measured using a digital caliper. Mice were sacrificed after 4 weeks.

Data set [2] has as its system bleomycin-induced lung fibrosis. In words: Mouse oropharyngeal bleomycin model of lung fibrosis. Format: in vivo.
Description: Lung fibrosis was induced in C57Bl/6 male mice by administering bleomycin (0.1-4 U/kg) via oropharyngeal instillation. Mice were either pretreated with vehicle or test compound orally, intraperitoneally, intravenously or subcutaneously either prophylactically (1 day to 1 hour before bleomycin instillation) or therapeutically (7-14 days post bleomycin instillation). The route and frequency of dosing were based on previously determined pharmacokinetic properties for the LOXL2 inhibitor in mouse. After bleomycin instillation, animals were monitored daily for weight loss and clinical signs for 14-28 days prior to sacrifice. Animals were euthanized at study termination and weighed. […] For histological examination, lung slices were stained with Masson's trichrome or picrosirius red to measure fibrillar collagen as an indicator of fibrosis and an Ashcroft score of lung fibrosis and inflammatory damage determined. […] After the acid hydrolysis, 25-100 μL of the supernatant is dried down, resuspended in 25 μL water and the hydroxyproline content determined by the addition of 0.5 mL Chloramine T solution (140 mg Chloramine T in 6.5 ml ddH2O+1 ml n-propanol+2.5 mL 1M sodium acetate) and incubation at room temperature for 20 min. […]
Fibrotic status was assessed histologically on Day 21 using Ashcroft score as a primary measure of lung fibrosis. […]
Another data set in a line: in vivo. The following applies: dog. How it is done:
Blood samples were taken from each dog (approximately 1 mL total blood per time point) at pre-dose, 5 or 15 min and then at various time points up to 24 hours post-dose. Samples were collected on wet ice in tubes containing potassium EDTA (w/v in normal saline; BD Biosciences, Franklin Lakes, N.J. Plasma samples, prepared by centrifugation of whole blood, were stored frozen (−80° C.) prior to analysis. All other reagents were of analytical grade.
(§1) Analysis was performed on an LC-MS/MS systems comprised of a Sciex API-4000Qt tandem mass spectrometer (AB Sciex, Foster City, Calif.) interfaced to an HPLC system consisting of a single Agilent 1200 Series Quaternary system pump (Santa Clara, Calif.) and a LEAP PAL auto-injector (Greenville, S.C.). Analyses were performed using an Agilent Zorbax SB-C8 column (2.1×50 mm; 5 μm) for chromatographic separations at room temperature.

Data set [3] is described as follows: Pharmacokinetic study of Compound 1 or 2 in rat. Format: in vivo. The note with it: male. How it is done:
Blood samples were taken from each rat (approximately 0.3 mL total blood per time point) at pre-dose, 5 or 15 min and then at various time points up to 24 hours post-dose. Samples were collected on wet ice in tubes containing potassium EDTA (w/v in normal saline; BD Biosciences, Franklin Lakes, N.J. Plasma samples, prepared by centrifugation of whole blood, were stored frozen (−80° C.) prior to analysis. All other reagents were of analytical grade.
as §1

Data set [4] concerns liver fibrosis in BALB/c.Mdr2-/- mice. In words: Mouse Mdr2 knockout model of biliary fibrosis. Format: in vivo. The following applies: a model of liver fibrosis. How it is done:
Liver disease develops in the BALB/c.Mdr2−/− mouse model with bridging fibrosis/early cirrhosis between 8 and 12 weeks of age (Ikenaga et al. 2015 Am J Pathology, 185: 325-334). […] At the end of the study, mice were anesthetized with isoflurane (1.5% v/v) via precise vaporizer. After laparotomy, portal pressure was measured directly by inserting a high-fidelity pressure catheter into the portal vein and measuring pressure signals for 5 minutes. Serum was collected for analysis of liver (ALT, AST, ALP, and bilirubin) and kidney (creatinine) biochemistries. Part of the liver was fixed in 10% neutral buffered formalin for histopathological analysis of inflammation, necrosis and fibrosis by H&E staining and picrosirius red staining. Collagen area fraction was measured from picrosirius red stained images using an algorithm that separates the red stained collagen from non-specific staining through color subtraction and thresholding of the processed image. Sections were analyzed in random order using the same threshold value for each set. Data were deconvolved after analysis to identify group assignment. Collagen content was determined from a portion of the liver tissue using hydroxyproline analysis.

Setting [5] is: PO, 0.5% MC, 30 mg/kg, fasted, AUC0-t PO/AUC0-t IV.
Where [6] appears, read: plasma, iv, 2 mg/kg, saline, fed.

Where two headings read alike, the source gives them in different places.

Sequence of human LOXL2 (Q9Y4K0 26-774): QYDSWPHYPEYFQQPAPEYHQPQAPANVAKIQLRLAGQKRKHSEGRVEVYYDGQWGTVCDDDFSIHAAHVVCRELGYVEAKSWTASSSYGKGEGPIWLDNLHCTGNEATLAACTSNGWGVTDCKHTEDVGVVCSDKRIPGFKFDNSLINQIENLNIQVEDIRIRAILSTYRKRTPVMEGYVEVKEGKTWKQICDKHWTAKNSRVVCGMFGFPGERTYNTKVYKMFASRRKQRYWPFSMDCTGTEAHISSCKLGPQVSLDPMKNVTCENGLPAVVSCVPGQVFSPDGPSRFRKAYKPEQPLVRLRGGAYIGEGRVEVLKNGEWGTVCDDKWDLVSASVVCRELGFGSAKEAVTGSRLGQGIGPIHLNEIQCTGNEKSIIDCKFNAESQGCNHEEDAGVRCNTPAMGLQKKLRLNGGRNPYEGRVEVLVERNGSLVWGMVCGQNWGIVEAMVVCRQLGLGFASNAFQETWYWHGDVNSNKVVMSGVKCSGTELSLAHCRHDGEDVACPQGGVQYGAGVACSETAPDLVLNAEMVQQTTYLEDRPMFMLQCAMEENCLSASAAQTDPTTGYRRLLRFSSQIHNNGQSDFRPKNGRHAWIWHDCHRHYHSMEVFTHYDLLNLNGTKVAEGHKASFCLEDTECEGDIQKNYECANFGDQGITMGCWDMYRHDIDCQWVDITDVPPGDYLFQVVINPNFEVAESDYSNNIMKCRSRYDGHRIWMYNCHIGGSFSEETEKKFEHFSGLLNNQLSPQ

The IC50 is the concentration that gives 50% inhibition. In the case of `NCc1cc(Oc2cccc(C(=O)N3C[C@H](O)[C@@H](F)C3)c2)nc(C(F)(F)F)c1` (single isomer, unassigned) [Compound Ent-1], on human LOXL2 (human LOXL2 CCM (non BSA-containing), 2 h preincubation at 37° C., read-out: IC50), the 50% inhibitory concentration (IC50) is under 300 nM.

`N#CCCN` [BAPN, β-aminopropionitrile]: the “effect on collagen induced arthritis” value in data set [1] was “ameliorated collagen induced arthritis (CIA)”.

By Tmax is commonly meant the time at which the peak concentration occurs. As a reminder, the AUC(0-t) is exposure summed from dosing to a finite time, without extrapolation to infinity. The low end stands for low exposure, the high end for high exposure. What is called Cmax is the peak of the concentration-time curve. Take `NCc1cc(Oc2cccc(C(=O)N3C[C@@H](O)[C@H](F)C3)c2)nc(C(F)(F)F)c1` [Compound 1, (R,R)-trans-(3-((4-(aminomethyl)-6-(trifluoromethyl)pyridin-2-yl)oxy)phenyl)(3-fluoro-4-hydroxypyrrolidin-1-yl)methanone]: at human LOXL2 (CCM containing BSA, read-out: IC50, LOXL2 (CCM containing BSA)), the IC50 was 116 nM. The “reduction in tumor volume” value with MDA-MB-435-GFP cells is reported as 35%. Moreover, the “Ashcroft score, mean value after treatment” value in data set [2] (prophylactic, oral 60 mg/kg/day from Day -1, Day 14, reduced from mean 3.1) worked out at 0.8. For the same molecule, the “normalization of Ashcroft score” value in data set [2] (recovery study, oral 60 mg/kg starting Day 14 after bleomycin, lungs harvested Day 28) is given as 73%. Moreover, the “emesis (clinical observations)” value in the data set “in vivo” (po) is on record as “Emesis was prevalent in all dose groups”. Moreover, the “AUC0-t hr/Dose” value in “in vivo” (po, 100 mg/kg) is reported as 0.85; in data set [3] (IV, saline, 2 mg/kg, fed), 0.07; in data set [3] (PO, 0.5% MC, 30 mg/kg, fasted), 0.05; in data set [3] (PO, capsule, 15 mg/kg, fasted), 0.05. Besides, the bioavailability in “in vivo” (male, beagle, 100 mg/kg, F(%)) was 283%; in data set [3] (setting [6]) it was 100%; in data set [3] (plasma, oral, 15 mg/kg, capsule, fasted, AUC0-t PO/AUC0-t IV) it was 69%. Further, the Tmax was found to be 78 min in “in vivo” (male, beagle, po, 100 mg/kg); 4.98 min in data set [3] (plasma, iv, 2 mg/kg, IV, saline, 2 mg/kg, fed, read-out: Tmax); 36 min in data set [3] (plasma, po, 15 mg/kg, PO, capsule, 15 mg/kg, fasted, read-out: Tmax); 15 min in data set [3] (plasma, po, 30 mg/kg, PO, 0.5% MC, 30 mg/kg, fasted, read-out: Tmax). Also, the AUC(0-t) in “in vivo” (male, beagle, po, 100 mg/kg, AUC(0-t hr)) was 85000 ng·h/mL; in data set [3] (setting [6]) it was 140 ng·h/mL; in data set [3] (plasma, po, 15 mg/kg, capsule, fasted), 740 ng·h/mL; in data set [3] (plasma, po, 30 mg/kg, 0.5% MC, fasted), 1400 ng·h/mL. The Cmax is 27000 ng/mL in the data set “in vivo” (male, beagle, po, 100 mg/kg); 630 ng/mL in data set [3] (plasma, iv, 2 mg/kg, IV, saline, 2 mg/kg, fed, read-out: Cmax); 1200 ng/mL in data set [3] (plasma, po, 15 mg/kg, PO, capsule, 15 mg/kg, fasted, read-out: Cmax); 1700 ng/mL in data set [3] (plasma, po, 30 mg/kg, PO, 0.5% MC, 30 mg/kg, fasted, read-out: Cmax). Further, the “F(%)” value in data set [3] (setting [5]) turned out to be 71%.

Turning to `NCc1cc(Oc2cccc(C(=O)N3C[C@@H](O)[C@H](F)C3)c2)nc(C(F)(F)F)c1` [Compound I, (R,R)-trans-(3-((4-(aminomethyl)-6-(trifluoromethyl)pyridin-2-yl)oxy)phenyl)(3-fluoro-4-hydroxypyrrolidin-1-yl)methanone], the “potency relative to the (S,S)-isomer” value at human LOXL2 (in vitro assays) is reported as “less than 2 fold”. In data set [4], the “fibrosis as area fraction of Picrosirius red (collagen) positive staining” value is listed as “significantly reduced fibrosis”.

For the molecule `NCc1cc(Oc2cccc(C(=O)N3C[C@@H](O)[C@H](F)C3)c2)nc(C(F)(F)F)c1` [Compound 2, (R,R)-trans-(3-((4-(aminomethyl)-6-(trifluoromethyl)pyridin-2-yl)oxy)phenyl)(3-fluoro-4-hydroxypyrrolidin-1-yl)methanone], in the data set “in vivo” (po), the “emesis (clinical observations)” value is reported as “Emesis was prevalent in all dose groups”; the “tolerability by dosing form (clinical observations)” value was “oral capsule and potentially the tablet were better tolerated”. The maximum concentration (Cmax) in “in vivo” (male, beagle, po, 300 mg/kg) turned out to be 143000 ng/mL. The time of peak concentration (Tmax) in the data set “in vivo” (male, beagle, po, 300 mg/kg, Tmax) is 18 min. Besides, in data set [3] (PO, 0.5% MC, 30 mg/kg, fasted), the “AUC0-t hr/Dose” value amounted to 0.07, the “AUC(0-t hr)” value is 2000 ng·h/mL, the Cmax turned out to be 2600 ng/mL and the Tmax worked out at 25.2 min. The “F(%)” value in data set [3] (setting [5]) came to 95%.

These data come from US11793797B2, “Uses of a lysyl oxidase-like 2 inhibitor” (PHARMAKEA, INC., priority 2016, dated 2023).
